Here are results for 16 compounds from patent US4008223A, “6-Aza-3H-1,4-benzodiazepines” (Deutsche Gold- und Silber-Scheideanstalt vormals Roessler, priority 1971, dated 1977).

In data set [1] the test system is mice. Briefly: Cardiazol shock (anticonvulsive / anxiolytic effect). As to conditions: Mus musculus, 1 h, oral, one hour before 150 mg/kg s.c. Cardiazol, 50% of animals with marked anticonvulsive effect. Type of data set: in vivo. An excerpt: The compounds of the present invention have a pronounced anxiolytic activity, i.e., they relieve or reduce anxiety. Such activity naturally cannot be measured directly in animals. […] A method for testing whether a compound has anticonvulsive properties and also therewith is anxiolytically active is the Cardiazol-Shock Method.
In order to compare the therapeutic value of the compounds of the present invention with the most closely related compounds in Littell U.S. Pat. No. 3,314,941 and Reeder U.S. Pat. No. 3,371,085 tests were conducted comparing the properties of the compounds of the present application and the Littell and Reeder patents in regard to anxiolytic effect (tested by Cardiazol-Shock).
The Cardiazol shock procedure was carried out according to the method of F.M. Berger et al in J. Pharmacol. Exper. Therap. Vol. 116, pages 337-342 (1956). With mice the subcutaneous injection of 150 mg/kg of Cardiazol first results in short lasting spasms, then long lasting and strong spasms and finally results in the death of all of the animals within 10 to 15 minutes. By the oral administration of the anticonvulsive acting test materials at various dosages one hour prior to the administration of the Cardiazol, the 100% lethal effect of the Cardiazol is reduced depending on the dosage. From the percentage of surviving animals in the individual test groups there was plotted graphically the dosage-effect line and from this the ED50 value was ascertained.

A short description of data set [2]: rotating rod test (ataxic effect). Type of data set: in vivo, mice. As to conditions: mouse, rotating rod test; mice; oral; 50% of animals show a typical ataxic effect; read-out: ED50, ataxic effect (rotating rod). An excerpt:
(§1) Furthermore, there is given in this table the ataxic activity. The ratio of ataxic activity to the anxiolytic activity is of the greatest significance in using a material as an anxiolytic agent. This quotient should be as large as possible since an ataxic activity is undesirable. Ataxic activity means that the coordination of the muscular movements is disturbed -- ataxic disturbance of the muscular coordination. This means at the dosage at which a marked anxiolytic activity is present there should not be found a noteworthy ataxice. The toxicity, in case the data exists above the ataxic activity, is no longer important since the amount which is toxic is always considerably higher than the amount at which 50% (ED50) of the animals have an ataxic effect. The ataxic effect was measured on mice on the pattern of the rotating rod.
(§2) In the rotating rod test the animals (mice) were firest placed on a rotating rod 15 minutes after the application of the test material and then were placed on the rotating rod every 15 minutes and the animals which fell down within 2 minutes measured positive. From the number of animals which fell down expressed in per cent there were drawn time-effect curves and the areas defined by it entered as percent effect in a probability network, the dosage-effect-line prepared and the ED50 read off. The ED50 mg/kg body weight of the mouse again specifies the dosage at which 50% of all the animals show a typical ataxic effect.

Data set [3] concerns mice. Briefly: rotating rod test (ataxic effect). To be noted: quotient of ED50 ataxia / ED50 Cardiazol shock; should be as large as possible. Type of data set: in vivo.
Source text: as §1, §2

For data set [4] the following is noted: literature; cited from earlier work.
For data set [5] the following is noted: First Int. Pharmacological Meeting, Vol. 7, pages 311 et seq.; cited from earlier work.
The conditions of data set [6]: on introduction of p-chlorine and alpha-methyl; literature; cited from earlier work.

Structures are written as SMILES.

A word on the ED50: it is the midpoint of the dose-response relation. A higher ED50 goes with a need for a large dose. The compound `CC1N=C(c2ccccc2)c2nc(Cl)ccc2NC1=O` (racemic) [Example 4, 3-Methyl-5-phenyl-6-aza-7-chloro-1,2-dihydro-3H-1,4-benzodiazepinone-(2)] displayed an ED50 in data set [1] of 18 mg/kg. Moreover, the TD50 in data set [2] was 78 mg/kg. Further, the “ratio of ataxic activity to the anxiolytic activity” value (“ratio of ataxic activity” below) in data set [3] is 4.3.

As for `CN(C)CCCN1c2ccccc2Sc2ccc(Cl)cc21` [Chlorpromazine], in data set [4], the antihistamine activity result is recorded as “practically no antihistamine activity”.

In the case of `O=C1CN=C(c2ccccc2)c2nc(Cl)ccc2N1` [Example 1, 5-Phenyl-6-aza-7-chloro-1,2-dihydro-3H-1,4-benzodiazepinone-(2)], in data set [1], it took a dose of 6.3 mg/kg to reach the 50% effect level (ED50). Besides, in data set [2], the TD50 was 72 mg/kg. In data set [3], the “ratio of ataxic activity” value is given as 11.4.

`O=C1CN=C(c2ccccc2Cl)c2nc(Cl)ccc2N1` [Example 6, 5-(o-Chlorophenyl)-6-aza-7-chloro-1,2-dihydro-3H-1,4-benzodiazepinone-(2)] had an ED50 in data set [1] of 2.72 mg/kg. In addition, the TD50 in data set [2] was 45 mg/kg. The “ratio of ataxic activity” value in data set [3] amounted to 16.5.

Compound `CN1C(=O)CN=C(c2ccccc2F)c2nc(Cl)ccc21` [Example 9, 1-Methyl-5-(o-fluorophenyl)-6-aza-7-chloro-1,2-dihydro-3H-1,4-benzodiazepinone-(2)] had an ED50 in data set [1] of 1.58 mg/kg. Moreover, the TD50 in data set [2] was 9.7 mg/kg. Besides, in data set [3], the “ratio of ataxic activity” value was determined as 6.1.

`O=C1CN=C(c2ccccc2F)c2nc(Cl)ccc2N1` [Example 10, 5-(-Fluorophenyl)-6-aza-7-chloro-1,2-dihydro-3H-1,4-benzodiazepinone-(2)] had an ED50 in data set [1] of 1.63 mg/kg. In addition, the TD50 in data set [2] is 17 mg/kg. Further, in data set [3], the “ratio of ataxic activity” value is 10.4.

With `O=C(O)CCC(=O)OC1N=C(c2ccccc2Cl)c2nc(Cl)ccc2NC1=O` (stereo not shown) [Example 12], it took a dose of 7.4 mg/kg to reach the 50% effect level in data set [1] (ED50). The TD50 in data set [2] amounted to 100 mg/kg. Also, the “ratio of ataxic activity” value in data set [3] came to 13.5.

As for `O=C1Nc2ccc(Cl)nc2C(c2ccccc2Cl)=NC1O` (stereo not shown) [Example 13, 3-Hydroxy-5-o-chlorophenyl-6-aza-7-chloro-1,2-dihydro-3H-1,4-benzodiazepinone-(2)], the ED50 in data set [1] came out at 2.4 mg/kg. For the same compound, in data set [2], the TD50 turned out to be 36 mg/kg. Further, in data set [3], the “ratio of ataxic activity” value was determined as 15.0.

`CC(=O)OC1N=C(c2ccccc2Cl)c2nc(Cl)ccc2N(C(C)=O)C1=O` (stereo not shown) [Example 15, 1-Acetyl-3-acetoxy-5-(o-chlorophenyl)-6-aza-7-chloro-1,2-dihydro-3H-1,4-benzodiazepinone-(2)] came in with an ED50 in data set [1] of 15 mg/kg. Further, the TD50 in data set [2] was found to be 100 mg/kg. The “ratio of ataxic activity” value in data set [3] is 6.7.

For `CN1C(=O)CN=C(c2ccccc2)c2nc(Cl)ccc21` [Example 17, 1-Methyl-5-phenyl-6-aza-7-chloro-1,2-dihydro-3H-1,4-benzodiazepinone-(2)], in data set [1], the ED50 is 4.2 mg/kg. Also, the TD50 in data set [2] is 26 mg/kg. Also, in data set [3], the “ratio of ataxic activity” value was 6.2.

In the case of `C=CCN1C(=O)CN=C(c2ccccc2)c2nc(Cl)ccc21` [Example 18, 1-Allyl-5-phenyl-6-aza-7-chloro-1,2-dihydro-3H-1,4-benzodiazepinone-(2)], the ED50 in data set [1] was 11 mg/kg. Besides, in data set [2], the TD50 stood at 90 mg/kg. The “ratio of ataxic activity” value in data set [3] is reported as 8.2.

Compound `O=C1CN=C(c2ccccc2)c2nc(Cl)ccc2N1CC1CC1` [Example 19] yielded an ED50 in data set [1] of 9.75 mg/kg. In data set [2], the TD50 came out at 75 mg/kg. The “ratio of ataxic activity” value in data set [3] turned out to be 7.7.

Turning to `CN1C(=O)CN=C(c2ccccc2Cl)c2nc(Cl)ccc21` [Example 21, 1-Methyl-5-(o-chlorophenyl)-6-aza-7-chloro-1,2-dihydro-3H-1,4-benzodiazepinone-(2)], it took a dose of 0.98 mg/kg to reach the 50% effect level in data set [1] (ED50). The TD50 in data set [2] came out at 10 mg/kg. The “ratio of ataxic activity” value in data set [3] amounted to 10.2.

In data set [1], `CN1C(=S)CN=C(c2ccccc2Cl)c2nc(Cl)ccc21` [Example 24, 1-Methyl-5-(o-chlorophenyl)-6-aza-7-chloro-1,2-dihydro-3H-1,4-benzodiazepinthione-(2)] gave an ED50 of 3.3 mg/kg. The TD50 in data set [2] came to 39 mg/kg. Also, the “ratio of ataxic activity” value in data set [3] is reported as 12.5.

Consider `CC(NN)c1ccccc1` (stereo not drawn) [alpha phenyl-ethyl hydrazine], for which the stimulating activity result in data set [5] is given as “strong stimulating activity”.

With `CN(C)CCOC(C)(c1ccccc1)c1ccc(Cl)cc1` (stereo not shown) [chlorphenoxamine], the antihistamine activity entry in data set [4] is reported as “reduced”. Moreover, the anticholinergic activity entry in data set [6] was “strengthening”.
